Measurements taken from ChEMBL document CHEMBL4393697, “Lipophilic efficient phenylthiazoles with potent undecaprenyl pyrophosphatase inhibitory activity” (Eur J Med Chem, 2019).
Converted amounts (≈) assume the structure as drawn.

Assays:
Staphylococcus aureus [1] = assay: Resistance index, ratio of MIC for antibacterial activity against methicillin-resistant Staphylococcus aureus USA400 treated over 1 passage to MIC for antibacterial activity against methicillin-resistant Staphylococcus aureus USA400 treated for 18 to 20 hrs by broth microdilution assay; type: functional
Staphylococcus aureus [2] = assay: Resistance index, ratio of MIC for antibacterial activity against methicillin-resistant Staphylococcus aureus USA400 treated repeatedly over 9 passages to MIC for antibacterial activity against methicillin-resistant Staphylococcus aureus USA400 treated for 18 to 20 hrs by broth microdilution assay; type: functional
Staphylococcus aureus [3] = assay: Antibacterial activity against Staphylococcus aureus NRS107 assessed as reduction in bacterial cell growth incubated for 18 to 20 hrs by broth microdilution method; type: functional
Staphylococcus aureus [4] = assay: Antibacterial activity against methicillin resistant Staphylococcus aureus USA400 assessed as reduction in bacterial cell growth incubated for 18 to 20 hrs by broth microdilution method; type: functional
Staphylococcus aureus [5] = assay: Antibacterial activity against methicillin-resistant Staphylococcus aureus USA300 assessed as reduction in bacterial cell growth incubated for 18 to 20 hrs by broth microdilution method; type: functional
Staphylococcus aureus [6] = assay: Antibacterial activity against methicillin resistant Staphylococcus aureus NRS119 assessed as reduction in bacterial cell growth incubated for 18 to 20 hrs by broth microdilution method; type: functional
Staphylococcus aureus [7] = assay: Antibacterial activity against vancomycin resistant Staphylococcus aureus VRS10 assessed as reduction in bacterial cell growth incubated for 18 to 20 hrs by broth microdilution method; type: functional
Staphylococcus aureus [8] = assay: Antibacterial activity against Staphylococcus aureus ATCC 6538 assessed as reduction in bacterial cell growth incubated for 18 to 20 hrs by broth microdilution method; type: functional
[9] = test system: Staphylococcus epidermidis; assay: Antibacterial activity against methicillin resistant Staphylococcus epidermidis NRS101 assessed as reduction in bacterial cell growth incubated for 18 to 20 hrs by broth microdilution method; type: functional
Staphylococcus aureus [10] = assay: Antibacterial activity against vancomycin resistant Staphylococcus aureus VRS12 assessed as reduction in bacterial cell growth incubated for 18 to 20 hrs by broth microdilution method; type: functional
Staphylococcus aureus [11] = assay: Antibacterial activity against vancomycin resistant Staphylococcus aureus VRS11a assessed as reduction in bacterial cell growth incubated for 18 to 20 hrs by broth microdilution method; type: functional
Staphylococcus aureus [12] = assay: Antibacterial activity against intracellular methicillin resistant Staphylococcus aureus USA400 infected in mouse J774 cells assessed as log10 reduction of viable bacterial cells incubated for 24 hrs followed by re-plating on tryptic soy agar plates at 37 degC for 18 to 22 hrs by broth microdilution assay; type: functional
Enterococcus faecalis [13] = assay: Antibacterial activity against vancomycin resistant Enterococcus faecalis ATCC 51299 assessed as reduction in bacterial cell growth incubated for 18 to 20 hrs by broth microdilution method; type: functional
Enterococcus faecium [14] = assay: Antibacterial activity against vancomycin resistant Enterococcus faecium ATCC 700221 assessed as reduction in bacterial cell growth incubated for 18 to 20 hrs by broth microdilution method; type: functional
Listeria monocytogenes [15] = assay: Antibacterial activity against Listeria monocytogenes ATCC 19111 assessed as reduction in bacterial cell growth incubated for 18 to 20 hrs by broth microdilution method; type: functional
Streptococcus pneumoniae [16] = assay: Antibacterial activity against Cephalosporin resistant Streptococcus pneumoniae ATCC 51916 assessed as reduction in bacterial cell growth incubated for 18 to 20 hrs by broth microdilution method; type: functional
Streptococcus pneumoniae [17] = assay: Antibacterial activity against Methicillin resistant Streptococcus pneumoniae ATCC 700677 assessed as reduction in bacterial cell growth incubated for 18 to 20 hrs by broth microdilution method; type: functional
Staphylococcus aureus [18] = assay: Bactericidal activity against Staphylococcus aureus ATCC 6538 assessed as reduction in bacterial cell growth incubated for 18 to 20 hrs followed by re-plating on tryptic soy agar plates at 37 degC for 18 hrs by broth microdilution assay; type: functional
Staphylococcus aureus [19] = assay: Bactericidal activity against Staphylococcus aureus NRS107 assessed as reduction in bacterial cell growth incubated for 18 to 20 hrs followed by re-plating on tryptic soy agar plates at 37 degC for 18 hrs by broth microdilution assay; type: functional
Staphylococcus aureus [20] = assay: Bactericidal activity against methicillin resistant Staphylococcus aureus NRS119 assessed as reduction in bacterial cell growth incubated for 18 to 20 hrs followed by re-plating on tryptic soy agar plates at 37 degC for 18 hrs by broth microdilution assay; type: functional
Staphylococcus aureus [21] = assay: Bactericidal activity against methicillin-resistant Staphylococcus aureus USA300 assessed as reduction in bacterial cell growth incubated for 18 to 20 hrs followed by re-plating on tryptic soy agar plates at 37 degC for 18 hrs by broth microdilution assay; type: functional
Staphylococcus aureus [22] = assay: Bactericidal activity against vancomycin resistant Staphylococcus aureus VRS10 assessed as reduction in bacterial cell growth incubated for 18 to 20 hrs followed by re-plating on tryptic soy agar plates at 37 degC for 18 hrs by broth microdilution assay; type: functional
Staphylococcus aureus [23] = assay: Bactericidal activity against vancomycin resistant Staphylococcus aureus VRS11a assessed as reduction in bacterial cell growth incubated for 18 to 20 hrs followed by re-plating on tryptic soy agar plates at 37 degC for 18 hrs by broth microdilution assay; type: functional
Staphylococcus aureus [24] = assay: Bactericidal activity against vancomycin resistant Staphylococcus aureus VRS12 assessed as reduction in bacterial cell growth incubated for 18 to 20 hrs followed by re-plating on tryptic soy agar plates at 37 degC for 18 hrs by broth microdilution assay; type: functional
[25] = test system: Staphylococcus epidermidis; assay: Bactericidal activity against methicillin resistant Staphylococcus epidermidis NRS101 assessed as reduction in bacterial cell growth incubated for 18 to 20 hrs followed by re-plating on tryptic soy agar plates at 37 degC for 18 hrs by broth microdilution assay; type: functional
Enterococcus faecalis [26] = assay: Bactericidal activity against vancomycin resistant Enterococcus faecalis ATCC 51299 assessed as reduction in bacterial cell growth incubated for 18 to 20 hrs followed by re-plating on tryptic soy agar plates at 37 degC for 18 hrs by broth microdilution assay; type: functional
Enterococcus faecium [27] = assay: Bactericidal activity against vancomycin resistant Enterococcus faecium ATCC 700221 assessed as reduction in bacterial cell growth incubated for 18 to 20 hrs followed by re-plating on tryptic soy agar plates at 37 degC for 18 hrs by broth microdilution assay; type: functional
Listeria monocytogenes [28] = assay: Bactericidal activity against Listeria monocytogenes ATCC 19111 assessed as reduction in bacterial cell growth incubated for 18 to 20 hrs followed by re-plating on tryptic soy agar plates at 37 degC for 18 hrs by broth microdilution assay; type: functional
Streptococcus pneumoniae [29] = assay: Bactericidal activity against Cephalosporin resistant Streptococcus pneumoniae ATCC 51916 assessed as reduction in bacterial cell growth incubated for 18 to 20 hrs followed by re-plating on tryptic soy agar plates at 37 degC for 18 hrs by broth microdilution assay; type: functional
Streptococcus pneumoniae [30] = assay: Bactericidal activity against Methicillin resistant Streptococcus pneumoniae ATCC 700677 assessed as reduction in bacterial cell growth incubated for 18 to 20 hrs followed by re-plating on tryptic soy agar plates at 37 degC for 18 hrs by broth microdilution assay; type: functional
Acinetobacter baumannii [31] = assay: Antibacterial activity against Acinetobacter baumannii ATCC 19606 assessed as reduction in bacterial cell growth incubated for 18 to 20 hrs by broth microdilution method; type: functional
Escherichia coli [32] = assay: Antibacterial activity against Escherichia coli BW25113 assessed as reduction in bacterial cell growth incubated for 18 to 20 hrs by broth microdilution method; type: functional
Escherichia coli [33] = assay: Antibacterial activity against Escherichia coli JW55031 harboring deltatolC mutant assessed as reduction in bacterial cell growth incubated for 18 to 20 hrs by broth microdilution method; type: functional
Klebsiella pneumoniae [34] = assay: Antibacterial activity against Klebsiella pneumoniae BAA-1706 assessed as reduction in bacterial cell growth incubated for 18 to 20 hrs by broth microdilution method; type: functional
Pseudomonas aeruginosa [35] = assay: Antibacterial activity against Pseudomonas aeruginosa ATCC 15442 assessed as reduction in bacterial cell growth incubated for 18 to 20 hrs by broth microdilution method; type: functional
Acinetobacter baumannii [36] = assay: Bactericidal activity against Acinetobacter baumannii ATCC 19606 assessed as reduction in bacterial cell growth incubated for 18 to 20 hrs followed by re-plating on tryptic soy agar plates at 37 degC for 18 hrs by broth microdilution assay; type: functional
Escherichia coli [37] = assay: BActericidal activity against Escherichia coli BW25113 assessed as reduction in bacterial cell growth incubated for 18 to 20 hrs followed by re-plating on tryptic soy agar plates at 37 degC for 18 hrs by broth microdilution assay; type: functional
Escherichia coli [38] = assay: Bactericidal activity against Escherichia coli JW55031 harboring deltatolC mutant assessed as reduction in bacterial cell growth incubated for 18 to 20 hrs followed by re-plating on tryptic soy agar plates at 37 degC for 18 hrs by broth microdilution assay; type: functional
Klebsiella pneumoniae [39] = assay: Bactericidal activity against Klebsiella pneumoniae BAA-1706 assessed as reduction in bacterial cell growth incubated for 18 to 20 hrs followed by re-plating on tryptic soy agar plates at 37 degC for 18 hrs by broth microdilution assay; type: functional
Pseudomonas aeruginosa [40] = assay: Bactericidal activity against Pseudomonas aeruginosa ATCC 15442 assessed as reduction in bacterial cell growth incubated for 18 to 20 hrs followed by re-plating on tryptic soy agar plates at 37 degC for 18 hrs by broth microdilution assay; type: functional
J774 [41] = assay: Cytotoxicity against mouse J774 assessed as reduction in cell viability at 16 ug/ml incubated for 24 hrs by MTS assay; type: cell-based; details: j774, 24 h
J774 [42] = assay: Cytotoxicity against mouse J774 cells reduction in cell viability up to 32 ug/ml incubated for 24 hrs by MTS assay; type: cell-based; details: j774, 24 h
[43] = Solubility of compound in PBS after 2 hrs by turbidity based absorbance analysis; type: physicochemical

## CO[C@H]1/C=C/O[C@@]2(C)Oc3c(C)c(O)c4c(O)c(c(/C=N/N5CCN(C)CC5)c(O)c4c3C2=O)NC(=O)/C(C)=C\C=C\[C@H](C)[C@H](O)[C@@H](C)[C@@H](O)[C@@H](C)[C@H](OC(C)=O)[C@@H]1C [RIFAMPIN]
Staphylococcus aureus [1]
  Ratio: 29
Staphylococcus aureus [2]
  Ratio: >500000

## C/C(=N\NC(=N)N)c1sc(-c2ccc(C#Cc3cccc(O)c3)cc2)nc1C
Staphylococcus aureus [3]
  MIC: 4 µg/mL (≈ 10.3 µM)
Staphylococcus aureus [4]
  MIC: 2 µg/mL (≈ 5.13 µM)
Staphylococcus aureus [5]
  MIC: 4 µg/mL (≈ 10.3 µM)
Staphylococcus aureus [6]
  MIC: 2 µg/mL (≈ 5.13 µM)
Staphylococcus aureus [7]
  MIC: 4 µg/mL (≈ 10.3 µM)
Staphylococcus aureus [8]
  MIC: 2 µg/mL (≈ 5.13 µM)
[9]
  MIC: 2 µg/mL (≈ 5.13 µM)
Staphylococcus aureus [10]
  MIC: 4 µg/mL (≈ 10.3 µM)
Staphylococcus aureus [11]
  MIC: 4 µg/mL (≈ 10.3 µM)
Staphylococcus aureus [12]
  Activity: 0.92 log10CFU
Enterococcus faecalis [13]
  MIC: 32 µg/mL (≈ 82.2 µM)
Enterococcus faecium [14]
  MIC: ≤ 0.5 µg/mL
Listeria monocytogenes [15]
  MIC: 8 µg/mL (≈ 20.5 µM)
Streptococcus pneumoniae [16]
  MIC: 8 µg/mL (≈ 20.5 µM)
Streptococcus pneumoniae [17]
  MIC: 16 µg/mL (≈ 41.1 µM)
Staphylococcus aureus [18]
  MBC: 4 µg/mL (≈ 10.3 µM)
Staphylococcus aureus [19]
  MBC: 4 µg/mL (≈ 10.3 µM)
Staphylococcus aureus [20]
  MBC: 4 µg/mL (≈ 10.3 µM)
Staphylococcus aureus [21]
  MBC: 4 µg/mL (≈ 10.3 µM)
Staphylococcus aureus [22]
  MBC: 4 µg/mL (≈ 10.3 µM)
Staphylococcus aureus [23]
  MBC: 4 µg/mL (≈ 10.3 µM)
Staphylococcus aureus [24]
  MBC: 4 µg/mL (≈ 10.3 µM)
[25]
  MBC: 2 µg/mL (≈ 5.13 µM)
Enterococcus faecalis [26]
  MBC: 64 µg/mL (≈ 164 µM)
Enterococcus faecium [27]
  MBC: 1 µg/mL (≈ 2.57 µM)
Listeria monocytogenes [28]
  MBC: 64 µg/mL (≈ 164 µM)
Streptococcus pneumoniae [29]
  MBC: 32 µg/mL (≈ 82.2 µM)
Streptococcus pneumoniae [30]
  MBC: 32 µg/mL (≈ 82.2 µM)
Acinetobacter baumannii [31]
  MIC: > 64 µg/mL
Escherichia coli [32]
  MIC: > 64 µg/mL
Escherichia coli [33]
  MIC: 64 µg/mL (≈ 164 µM)
Klebsiella pneumoniae [34]
  MIC: > 64 µg/mL
Pseudomonas aeruginosa [35]
  MIC: > 64 µg/mL
Acinetobacter baumannii [36]
  MBC: > 64 µg/mL
Escherichia coli [37]
  MBC: > 64 µg/mL
Escherichia coli [38]
  MBC: > 64 µg/mL
Klebsiella pneumoniae [39]
  MBC: > 64 µg/mL
Pseudomonas aeruginosa [40]
  MBC: > 64 µg/mL
J774 [41]
  Activity: Non-Toxic
J774 [42]
  Activity: Non-Toxic
[43]
  solubility kinetic at 2 h: 55 µM (≈ 21.4 µg/mL)
